In ChEMBL document CHEMBL5052843, “Inhibitors of apol1 and methods of using same” (2020) one finds IC50 data, which are given here for 60 compounds.

Test [1] addresses Apolipoprotein L1 (Homo sapiens, UniProt O14791). Description: Inhibition of APOL1 G1 variant in human HEK293-T-REx cells measured by Thallium assay. In kind it is cell-based.
Test [2] has as its system Trypanosoma brucei brucei. Briefly: Antitrypanosomal activity against Trypanosoma brucei brucei assessed as trypanosome lysis using recombinant APOL1 protein G1 variant and measured by Alamar blue based fluorescene assay. In kind it is functional, organism-based. In general terms: Resazurin is reduced to fluorescent resorufin, in cell work by metabolically active cells.

As a reminder, the IC50 is the concentration at which inhibition is half-maximal. On to `O=C(CCc1c(-c2ccccc2)[nH]c2c(F)cccc12)N[C@@H]1C(=O)NC[C@H]1O`, for which the IC50 in test [1] and in test [2] was less than 250 nM in each case.

Turning to `O=C(CCc1c(-c2ccc(F)cc2)[nH]c2c(F)cc(F)cc12)N[C@@H]1C(=O)NC[C@@H]1O`, the IC50 in test [1] and in test [2] was less than 250 nM throughout. Regarding `O=C(CCc1c(-c2ccccc2)[nH]c2cc(F)c(F)cc12)N[C@@H]1C(=O)NC[C@H]1O`, the IC50 in test [1] and in test [2] was less than 250 nM in each case. As for `N#Cc1ccc(-c2[nH]c3c(F)cc(F)cc3c2CCC(=O)N[C@H]2CCNC2=O)cc1`, the IC50 in test [1] and in test [2] was less than 250 nM in each case.

As for `N#Cc1cc(F)cc2c(CCC(=O)N[C@@H]3C(=O)NC[C@H]3O)c(-c3ccc(F)cc3)[nH]c12`, the concentration for half-maximal inhibition (IC50) in test [1] and in test [2] was less than 250 nM throughout. As to `O=C(CCc1c(-c2cc(F)cc(F)c2)[nH]c2c(F)cc(F)cc12)N[C@@H]1C(=O)NC[C@H]1O`, the figures for the IC50 in test [1] and in test [2] were less than 250 nM and 250 nM, respectively. Regarding `O=C(CCc1c(-c2ccc(F)cc2)[nH]c2c(F)cc(Br)cc12)N[C@H]1CCNC1=O`, the IC50 in test [1] and in test [2] was less than 250 nM throughout. Take `O=C(CCc1c(-c2ccccc2)[nH]c2c(F)c(F)c(F)cc12)N[C@@H]1C(=O)NC[C@H]1O`: the IC50 in test [1] and in test [2] was less than 250 nM in each case. Consider `O=C(CCc1c(-c2ccc(F)cc2)[nH]c2ccccc12)N[C@@H]1C(=O)NC[C@H]1O`, for which the IC50 in test [1] and in test [2] was less than 250 nM each time. For the compound `O=C(CCc1c(-c2ccccc2)[nH]c2c(F)cc(F)cc12)N[C@@H]1C(=O)NC[C@H]1O`, the IC50 in test [1] and in test [2] was less than 250 nM in each case. As to `O=C(CCc1c(-c2ccc(F)cc2)[nH]c2c(F)c(F)ccc12)N[C@@H]1C(=O)NC[C@H]1O`, the IC50 in test [1] and in test [2] was less than 250 nM in each case.

Take `O=C1NC[C@@H](O)[C@@H]1NC(=O)C(F)(F)Cc1c(-c2ccc(F)cc2)[nH]c2c(F)cc(F)cc12`: the IC50 in test [1] and in test [2] was less than 250 nM in each case. Take `O=C(CCc1c(-c2ccccc2)[nH]c2c(Br)cccc12)N[C@@H]1C(=O)NC[C@H]1O`: the half-maximal inhibitory concentration (IC50) in test [1] and in test [2] was less than 250 nM throughout. With `O=C(CCc1c(-c2ccc(F)cc2)[nH]c2ccc(C(F)(F)F)cc12)N[C@@H]1C(=O)NC[C@H]1O`, the IC50 in test [1] and in test [2] was less than 250 nM throughout. For `O=C(CCc1c(-c2ccc(F)cc2)[nH]c2c(F)cccc12)N[C@H]1CCNC1=O`, the IC50 in test [1] and in test [2] was less than 250 nM throughout. Turning to `O=C(CCc1c(-c2ccc(OC(F)F)cc2)[nH]c2c(F)cc(F)cc12)N[C@H]1CCNC1=O`, the IC50 in test [1] and in test [2] was less than 250 nM throughout. In the case of `COc1cc(F)cc2c(CCC(=O)N[C@@H]3C(=O)NC[C@H]3O)c(-c3ccc(F)cc3)[nH]c12`, the IC50 in test [1] and in test [2] was less than 250 nM throughout. As for `O=C(CCc1c(-c2ccc(F)cc2)[nH]c2c(Cl)cccc12)N[C@@H]1C(=O)NC[C@H]1O`, the IC50 in test [1] and in test [2] was less than 250 nM each time. As to `O=C(CCc1c(-c2ccccc2)[nH]c2c(C(F)(F)F)cccc12)N[C@@H]1C(=O)NC[C@H]1O`, the results for the IC50 in test [1] and in test [2] were 250 nM and more than 1000 nM, respectively. For `O=C(CCc1c(-c2ccc(F)cc2)[nH]c2c(F)cc(F)cc12)N[C@H]1C[C@H](CO)NC1=O` the same measures were more than 1000 nM and more than 1000 nM. `Cc1c(F)c(F)cc2c(CCC(=O)N[C@@H]3C(=O)NC[C@H]3O)c(-c3ccccc3)[nH]c12`: the IC50 in test [1] and in test [2] was less than 250 nM in each case. With `O=C(CCc1c(-c2ccc(F)cc2)[nH]c2ccc(OCc3ccccc3)cc12)N[C@H]1CCNC1=O`, the IC50 in test [1] and in test [2] was 250 nM each time. `CN(C(=O)CCc1c(-c2ccc(F)cc2)[nH]c2ccc(F)cc12)C1CCNC1=O` (centres undefined): the IC50 in test [1] and in test [2] was 250 nM each time.

As for `O=C(CCc1c(-c2ccccc2)[nH]c2ccc(F)cc12)N[C@@H]1C(=O)NC[C@H]1O`, the IC50 in test [1] and in test [2] was less than 250 nM throughout. Turning to `CC1C[C@H](NC(=O)CCc2c(-c3ccc(F)cc3)[nH]c3c(F)cc(F)cc23)C(=O)N1` (some centres undefined), the IC50 in test [1] and in test [2] was 250 nM each time.

For the compound `Cc1ccc2[nH]c(-c3ccc(Br)cc3)c(CCC(=O)N[C@H]3CCNC3=O)c2c1`, the IC50 in test [1] and in test [2] was less than 250 nM in each case. In the case of `O=C(CCc1c(-c2ccc(F)cc2)[nH]c2c(F)cc(F)cc12)N[C@@H]1CCNC1=O`, the results for the 50% inhibitory concentration (IC50) in test [1] and in test [2] were 250 nM and less than 250 nM, respectively.

For the compound `O=C(CCc1c(-c2cccc(F)c2)[nH]c2c(F)cc(F)cc12)N[C@@H]1C(=O)NC[C@H]1O`, the IC50 in test [1] and in test [2] was less than 250 nM throughout. `[2H]C([2H])(C(=O)N[C@@H]1C(=O)NC[C@H]1O)C([2H])([2H])c1c(-c2ccc(F)cc2)[nH]c2c(F)cc(F)cc12`: the IC50 in test [1] and in test [2] was less than 250 nM throughout.

For the compound `O=C(CCc1c(-c2ccccc2)[nH]c2c(F)c(F)ccc12)N[C@@H]1C(=O)NC[C@H]1O`, the IC50 in test [1] and in test [2] was less than 250 nM each time. For the compound `O=C(CCc1c(-c2ccc(F)cc2)[nH]c2c(F)cc(F)cc12)N[C@H]1C[C@@H](CO)NC1=O`, the half-inhibitory concentration (IC50) in test [1] and in test [2] was more than 1000 nM in each case. In the case of `O=C(CCc1c(-c2ccc(F)cc2)[nH]c2c(F)cc(Cl)cc12)N[C@@H]1C(=O)NC[C@H]1O`, the IC50 in test [1] and in test [2] was less than 250 nM each time. With `O=C1C[C@H](NC(=O)CCc2c(-c3ccc(F)cc3)[nH]c3c(F)cc(F)cc23)C(=O)N1`, the IC50 in test [1] and in test [2] was 250 nM in each case. In the case of `N#Cc1cc(F)c2[nH]c(-c3ccc(F)cc3)c(CCC(=O)N[C@H]3CCNC3=O)c2c1`, the IC50 in test [1] and in test [2] was more than 1000 nM in each case.

Take `O=C(CCc1c(-c2ccccc2)[nH]c2cc(F)cc(F)c12)N[C@@H]1C(=O)NC[C@H]1O`: the half-maximal inhibitory concentration (IC50) in test [1] and in test [2] was less than 250 nM in each case. As for `O=C(CCc1c(-c2ccc(F)cc2)[nH]c2c(Cl)cccc12)N[C@H]1CCNC1=O`, the 50% inhibitory concentration (IC50) in test [1] and in test [2] was less than 250 nM throughout. As for `O=C(CCc1c(-c2ccc(F)cc2)[nH]c2ccc(F)cc12)N[C@@H]1CCNC1=O`, the IC50 in test [1] and in test [2] was 250 nM each time. Consider `O=C(CCc1c(-c2ccc(F)cc2)[nH]c2ccc(F)cc12)N[C@H]1CCNC1=O`, for which the IC50 in test [1] and in test [2] was less than 250 nM in each case. For `O=C(CCc1c(-c2ccc(F)c(F)c2)[nH]c2c(F)cc(F)cc12)N[C@@H]1C(=O)NC[C@H]1O`, the IC50 in test [1] and in test [2] was less than 250 nM each time.

For `O=C(CCc1c(-c2ccc(F)cc2)[nH]c2c(F)cccc12)N[C@@H]1C(=O)NC[C@H]1O`, the IC50 in test [1] and in test [2] was less than 250 nM each time. For the compound `O=C(CCc1c(-c2ccc(F)cc2)[nH]c2c(F)cc(F)cc12)N[C@H]1CCNC1=O`, the IC50 in test [1] and in test [2] was less than 250 nM in each case. In the case of `O=C(CCc1c(-c2ccc(F)cc2)[nH]c2c(F)cc(C(F)(F)F)cc12)N[C@@H]1C(=O)NC[C@H]1O`, the IC50 in test [1] and in test [2] was less than 250 nM in each case.

`O=C(CCc1c(-c2ccc(F)cc2)[nH]c2c(Cl)cc(F)cc12)N[C@@H]1C(=O)NC[C@H]1O`: the IC50 in test [1] and in test [2] was less than 250 nM in each case. Turning to `O=C1C[C@@H](NC(=O)CCc2c(-c3ccc(F)cc3)[nH]c3c(F)cc(F)cc23)C(=O)N1`, the IC50 in test [1] and in test [2] was 250 nM in each case. For `O=C(CCc1c(-c2ccccc2)[nH]c2ccc(Cl)cc12)N[C@@H]1C(=O)NC[C@H]1O`, the half-maximal inhibitory concentration (IC50) in test [1] and in test [2] was less than 250 nM in each case. On to `O=C(CCc1c(-c2ccc(F)cc2)[nH]c2ccc(F)cc12)NC1CCNC1=O` (centres undefined), for which the concentration for half-maximal inhibition (IC50) in test [1] and in test [2] was less than 250 nM in each case.

`O=C(CCc1c(-c2ccc(F)cc2)[nH]c2ccccc12)N[C@@H]1C(=O)NC[C@@H]1O`: the IC50 in test [1] was more than 1000 nM. As for `O=C(CCc1c(-c2ccccc2)[nH]c2ccccc12)N[C@@H]1C(=O)NC[C@H]1O`, the IC50 in test [1] and in test [2] was less than 250 nM in each case. With `O=C(CCc1c(-c2ccccc2)[nH]c2ccc(F)cc12)N[C@H]1CCNC1=O`, the IC50 in test [1] and in test [2] was less than 250 nM throughout. Regarding `Cc1cc(F)cc2c(CCC(=O)N[C@@H]3C(=O)NC[C@H]3O)c(-c3ccc(F)cc3)[nH]c12`, the IC50 in test [1] and in test [2] was less than 250 nM throughout. For the compound `O=C(CCc1c(-c2ccc(OC(F)F)cc2)[nH]c2c(F)cc(F)cc12)N[C@@H]1C(=O)NC[C@H]1O`, the IC50 in test [1] and in test [2] was less than 250 nM throughout. Turning to `Cc1cc(F)c2[nH]c(-c3ccc(F)cc3)c(CCC(=O)N[C@@H]3C(=O)NC[C@H]3O)c2c1`, the IC50 in test [1] and in test [2] was less than 250 nM each time. With `[2H]C(C(=O)N[C@@H]1C(=O)NC[C@H]1O)C([2H])c1c(-c2ccc(F)cc2)[nH]c2c(F)cc(F)cc12` (some centres undefined), the IC50 in test [1] and in test [2] was less than 250 nM throughout.

With `O=C(CCc1c(-c2ccc(F)cc2)[nH]c2c(F)ccc(F)c12)N[C@H]1CCNC1=O`, the IC50 in test [1] and in test [2] was more than 1000 nM throughout. As for `O=C(CCc1c(-c2ccc(F)cc2)[nH]c2ccc(O)cc12)N[C@H]1CCNC1=O`, the IC50 in test [1] and in test [2] was more than 1000 nM each time. `Cc1c(F)c(F)cc2c(CCC(=O)N[C@@H]3C(=O)NC[C@H]3O)c(-c3ccc(F)cc3)[nH]c12`: the IC50 in test [1] and in test [2] was less than 250 nM each time. For the compound `O=C(CCc1c(-c2ccccc2)[nH]c2cc(F)ccc12)N[C@@H]1C(=O)NC[C@H]1O`, the IC50 in test [1] and in test [2] was less than 250 nM each time. Turning to `CC1(NC(=O)CCc2c(-c3ccc(F)cc3)[nH]c3c(F)cc(F)cc23)CCNC1=O` (centres undefined), the IC50 in test [1] was 250 nM; in test [2], less than 250 nM. The like results for `O=C(CCc1c(-c2ccc(F)cc2)[nH]c2c(OC(F)F)cc(F)cc12)N[C@@H]1C(=O)NC[C@H]1O` were, in that order, less than 250 nM and 250 nM.

As for `O=C(CCc1c(-c2ccc(F)cc2)[nH]c2ccc(F)cc12)N[C@@H]1C(=O)NC[C@H]1O`, the IC50 in test [1] and in test [2] was less than 250 nM each time.
